Data as given in ChEMBL document CHEMBL5360542, “Current development of β-carboline derived potential antimalarial scaffolds” (Eur J Med Chem, 2023).

Tests used:
Type in all cases: functional, organism-based
Plasmodium falciparum [1] = assay: Antimalarial activity against chloroquine-resistant Plasmodium falciparum K1
Plasmodium falciparum [2] = assay: Antiplasmodial activity against chloroquine-resistant erythrocyte stage Plasmodium falciparum Dd2 assessed as inhibition of parasite growth incubated for 3 days by ELISA; conditions: 72 h
Plasmodium falciparum [3] = assay: Antiplasmodial activity against chloroquine-sensitive erythrocyte stage Plasmodium falciparum 3D7 assessed as inhibition of parasite growth incubated for 3 days by ELISA; conditions: 3D7, Erythrocyte, 72 h
Plasmodium falciparum [4] = assay: Antimalarial activity against Plasmodium falciparum 3D7 infected in human A positive erythrocytes assessed as reduction in parasite growth incubated for 24 hrs by [3H]hypoxanthine based scintillation counting analysis; conditions: 3D7, Erythrocyte
Plasmodium falciparum [5] = assay: Antimalarial activity against chloroquine-resistant Plasmodium falciparum K1 infected in human A positive erythrocytes assessed as reduction in parasite growth incubated for 24 hrs by [3H]hypoxanthine based scintillation counting analysis; conditions: K1, Erythrocyte
Plasmodium falciparum [6] = assay: Antimalarial activity against chloroquine-resistant Plasmodium falciparum FcB1 assessed as inhibition of parasite growth
Plasmodium falciparum [7] = assay: Antimalarial activity against chloroquine-resistant Plasmodium falciparum W2 transfected in human type A-positive RBC cells assessed reduction in parasite growth by measuring LDH activity incubated for 72 hrs by spectrophotometric analysis
Plasmodium falciparum [8] = assay: Antimalarial activity against chloroquine-sensitive Plasmodium falciparum D10 transfected in human type A-positive RBC cells assessed reduction in parasite growth by measuring LDH activity incubated for 72 hrs by spectrophotometric analysis
Plasmodium falciparum [9] = assay: Antimalarial activity against Plasmodium falciparum INDO infected in erythrocytes assessed as inhibition of parasite growth incubated for 48 hrs by SYBR-Green I fluorescence-based assay; conditions: Erythrocyte
Plasmodium falciparum [10] = assay: Antimalarial activity against Plasmodium falciparum 3D7 infected in erythrocytes assessed as inhibition of parasite growth incubated for 48 hrs by SYBR-Green I fluorescence-based assay; conditions: 3D7, Erythrocyte
Plasmodium falciparum [11] = assay: Antiplasmodial activity against multi-resistant Plasmodium falciparum W2 infected in erythrocytes assessed as inhibition of parasite growth incubated for 48 hrs by flow cytometry; conditions: W2, Erythrocyte
Plasmodium falciparum [12] = assay: Antimalarial activity against chloroquine-resistant Plasmodium falciparum K1 assessed as reduction in parasite growth incubated for 72 hrs by ELISA; conditions: K1, 72 h
Plasmodium falciparum [13] = assay: Antimalarial activity against chloroquine-sensitive Plasmodium falciparum 3D7 assessed as reduction in parasite growth
Plasmodium falciparum [14] = assay: Antimalarial activity against chloroquine-resistant Plasmodium falciparum K1 assessed as reduction in parasite growth
[15] = Plasmodium falciparum, W2, Erythrocyte, 72 h
[16] = Plasmodium falciparum, D10, Erythrocyte, 72 h

CC(C)(C)OC(=O)n1c2c(c3ccccc31)CCN(C(=O)OCc1ccccc1)C2CCO (centres undefined)
IC50 (Plasmodium falciparum [1]): 21.4 µM

Cc1nccc2c1[nH]c1cc(OCCNC(=O)/C=C/c3ccc(Cl)cc3)ccc12
IC50 (Plasmodium falciparum [2]): 0.4 µM
IC50 (Plasmodium falciparum [3]): 0.32 µM

Clc1ccc2[nH]c3c(N4CCC(N5CCCCC5)CC4)nccc3c2c1
IC50 (Plasmodium falciparum [4]): 10.2 µM
IC50 (Plasmodium falciparum [5]): 2.66 µM

c1ccc2c(CC3NCCc4c3[nH]c3ccccc43)c[nH]c2c1 (centres undefined)
IC50 (Plasmodium falciparum [6]): 9.6 µM

C/C=C/C(=O)N1CCc2c(n(C(=O)OC(C)(C)C)c3ccccc23)C1CC(=O)OCC (centres undefined)
IC50 (Plasmodium falciparum [1]): 15 µM

CCN(CC)C1CCN(c2nccc3c2[nH]c2ccc(Cl)cc23)CC1
IC50 (Plasmodium falciparum [4]): 1.6 µM
IC50 (Plasmodium falciparum [5]): 1.18 µM

CC(C)(C)CC(C)(C)NC(=O)C1Cc2c([nH]c3ccccc23)C(c2ccc(Cl)cc2)N1 (centres undefined)
IC50 (Plasmodium falciparum [7]; [15]): 6.41 µM
IC50 (Plasmodium falciparum [8]; [16]): 8.41 µM

CCOC(=O)c1cc2c([nH]c3ccccc32)c(-c2ccc(/N=C(/Nc3ccc(OC)cc3)NC3CC3)cc2)n1
IC50 (Plasmodium falciparum [9]): 1.2 µM
IC50 (Plasmodium falciparum [10]): 7.6 µM

COc1ccc2c3ccnc(C)c3n(CCNC(=O)/C=C/c3ccc(F)cc3)c2c1
IC50 (Plasmodium falciparum [2]): 0.33 µM
IC50 (Plasmodium falciparum [3]): 0.09 µM

O=C(NC1CCCCC1)C1Cc2c([nH]c3ccccc23)C(c2ccc(Cl)cc2)N1 (racemic; form 1)
IC50 (Plasmodium falciparum [7]; [15]): 13.5 µM
IC50 (Plasmodium falciparum [8]; [16]): 16.1 µM

Cc1nccc2c1[nH]c1cc(OCCNC(=O)/C=C/c3ccccc3F)ccc12
IC50 (Plasmodium falciparum [2]): 3.92 µM
IC50 (Plasmodium falciparum [3]): 0.93 µM

COc1ccc2[nH]cc(C(=O)c3nccc4c3[nH]c3ccc(OC)cc34)c2c1
IC50 (Plasmodium falciparum [6]): 1 µM

O=C(NC1CCCCC1)C1Cc2c([nH]c3ccccc23)C(c2ccc(Cl)cc2)N1 (racemic; form 2)
IC50 (Plasmodium falciparum [7]; rbc): 9.13 µM
IC50 (Plasmodium falciparum [8]; rbc): 12.5 µM

CCOC(=O)c1cc2c([nH]c3ccccc32)c(-c2ccc(NC(=S)Nc3ccc(OC)cc3)cc2)n1
IC50 (Plasmodium falciparum [9]): 1.8 µM
IC50 (Plasmodium falciparum [10]): 1.6 µM

CCOC(=O)c1cc2c([nH]c3ccccc32)c(-c2ccc(N)cc2)n1
IC50 (Plasmodium falciparum [9]): 39 µM
IC50 (Plasmodium falciparum [10]): 37.7 µM

CCOC(=O)c1cc2c([nH]c3ccccc32)c(-c2ccc(NS(=O)(=O)c3ccc(C)cc3)cc2)n1
IC50 (Plasmodium falciparum [9]): 1.9 µM
IC50 (Plasmodium falciparum [10]): 3.7 µM

CON(C)C(=O)CC1c2c(c3ccccc3n2C(=O)OC(C)(C)C)CCN1C(=O)OCc1ccccc1 (centres undefined)
IC50 (Plasmodium falciparum [1]): 13.8 µM

CC1NC(C(=O)N2CCCCC2)Cc2c1[nH]c1ccccc21 (centres undefined)
IC50 (Plasmodium falciparum [7]; [15]): 9.6 µM
IC50 (Plasmodium falciparum [8]; [16]): 13.2 µM

COc1ccc2c3ccnc(C)c3n(CCNC(=O)/C=C/c3ccc(Cl)cc3)c2c1
IC50 (Plasmodium falciparum [2]): 0.17 µM
IC50 (Plasmodium falciparum [3]): 0.04 µM

Clc1ccc2[nH]c3c(N4CCC(N5CCOCC5)CC4)nccc3c2c1
IC50 (Plasmodium falciparum [4]): 5.32 µM
IC50 (Plasmodium falciparum [5]): 1.9 µM

COc1ccc(C2NCCc3c2[nH]c2ccccc32)cc1 (centres undefined)
IC50 (Plasmodium falciparum [11]): 0.7 µM

Clc1ccc2[nH]c3c(NCCCn4ccnc4)nccc3c2c1
IC50 (Plasmodium falciparum [4]): 0.45 µM
IC50 (Plasmodium falciparum [5]): 0.92 µM

Fc1ccc(C2NCCc3c2[nH]c2ccccc32)cc1 (centres undefined)
IC50 (Plasmodium falciparum [11]): 1.1 µM

CCOC(=O)CC1c2c(c3ccccc3n2C(=O)OC(C)(C)C)CCN1C(=O)OCc1ccccc1 (centres undefined)
IC50 (Plasmodium falciparum [12]): 15.5 µM

CN(C)c1ccc(C2NCCc3c2[nH]c2ccccc32)cc1 (centres undefined)
IC50 (Plasmodium falciparum [11]): 3.9 µM

COC(=O)c1cc2c3ccccc3n3c2c(n1)C(c1ccccc1)OC(C)=C3 (centres undefined)
IC50 (Plasmodium falciparum [13]): > 5 µM
IC50 (Plasmodium falciparum [14]): > 5 µM

COc1ccc(/C=C/C(=O)NCCn2c3cc(OC)ccc3c3ccnc(C)c32)cc1
IC50 (Plasmodium falciparum [2]): 0.49 µM
IC50 (Plasmodium falciparum [3]): 0.26 µM

Cc1nccc2c1[nH]c1cc(OCCNC(=O)/C=C/c3ccccc3)ccc12
IC50 (Plasmodium falciparum [2]): 4.7 µM
IC50 (Plasmodium falciparum [3]): 0.98 µM

COc1ccc2c3ccnc(C)c3n(CCNC(=O)/C=C/c3cccc(F)c3)c2c1
IC50 (Plasmodium falciparum [2]): 0.78 µM
IC50 (Plasmodium falciparum [3]): 0.07 µM

Fc1ccc2[nH]c3c(NCCCn4ccnc4)nccc3c2c1
IC50 (Plasmodium falciparum [4]): 0.2 µM
IC50 (Plasmodium falciparum [5]): 0.41 µM

CC(C)(C)CCNC(=O)C1Cc2c([nH]c3ccccc23)C(c2ccc(Cl)cc2)N1 (centres undefined)
IC50 (Plasmodium falciparum [7]; [15]): 7.8 µM
IC50 (Plasmodium falciparum [8]; [16]): 10.5 µM

COC(=O)c1cc2c3cc(Cl)ccc3n3c2c(n1)C(C/C=C(\C)CCC=C(C)C)OC(C)=C3 (centres undefined)
IC50 (Plasmodium falciparum [13]): 1.55 µM
IC50 (Plasmodium falciparum [14]): > 5 µM

CCN(CC)CCCC(C)Nc1nccc2c1[nH]c1ccc(Cl)cc12 (centres undefined)
IC50 (Plasmodium falciparum [4]): 0.17 µM
IC50 (Plasmodium falciparum [5]): 0.24 µM

Clc1ccc(C2NCCc3c2[nH]c2ccccc32)cc1 (centres undefined)
IC50 (Plasmodium falciparum [11]): 4.8 µM

O=C(O)c1cc2c([nH]c3ccccc32)c(-c2c[nH]c3ccccc23)n1
IC50 (Plasmodium falciparum [6]): > 31 µM

Nc1nccc(-c2nccc3c2[nH]c2ccccc23)n1 [ANNOMONTINE]
IC50 (Plasmodium falciparum [9]): 3.06 µM
IC50 (Plasmodium falciparum [10]): 3.44 µM

N#Cc1ccc(C2NCCc3c2[nH]c2ccccc32)cc1 (centres undefined)
IC50 (Plasmodium falciparum [11]): 1.1 µM

COC(=O)c1cc2c3cc(Br)ccc3n3c2c(n1)COC(C)=C3
IC50 (Plasmodium falciparum [13]): > 5 µM

CCN(CC)CCCNc1nccc2c1[nH]c1ccc(Cl)cc12
IC50 (Plasmodium falciparum [4]): 0.15 µM
